Test results as given in patent publication EP0360437A1, “Biocidal polylamine-amides” (priority 1988, dated 1990).
Like-named read-outs stand apart in the source and are kept apart here.

Test system: complex formed by the invertebrate L-quisqualate sub-type L-glutamate receptor and its ion channel
Set-up: species or system Schistocerca gregaria
Procedure: The compounds were assayed for biological activity on the isolated, retractor unguis nerve-muscle preparation of the locust Schistocerca gregaria (Usherwood, P.N.R and Machili, P. (1968) J. Exp. Biol., 49: 341.). Isolated muscle preparations were bathed continuously in standard locust saline in a bath of volume 250µl. Twitch tension recordings of the muscle were made to electrical stimulation of its motor innervation supramaximal voltage, frequency 0.1Hz).
The locust isolated retractor unguis nerve-muscle is a preparation with well characterised muscle receptors belonging to the quisqualate-sensitive class (Boden, P. et al., (1986) Brain Res., 385: 205.). This preparation has previously been employed to identify antogonists of excitatory amino acid receptors, (e.g. Bateman, A. et al., (1985) Brain Res., 339: 237 and Budd, T. et al., (1988) Brain Res., 448: 30.).
The potency of this monocylated spermine as an antagonist of the complex formed by the invertebrate L-quisqualate sub-type L-glutamate receptor and its ion channel was assayed using the electrically stimulated retractor unguis muscle of the locust (Schistocerca gregaria). Twitch amplitude was reduced (1% inhibition) from control (100%) levels at the following concentrations: […]

## NCCCNCCCCNCCCNC(=O)Cc1ccccc1O [Example 1, N-(2-Hydroxyphenylacetyl)-spermine]
1.5 x 10⁻⁴M
  inhibition of twitch: 85%
1.5 x 10⁻⁵M
  inhibition of twitch: 30%
3 x 10⁻⁴M
  inhibition of twitch: 90%
3 x 10⁻⁵M
  inhibition of twitch: 30%
3 x 10⁻⁶M
  inhibition of twitch: 20%
3 x 10⁻⁷M
  inhibition of twitch: 15%
3 x 10⁻⁸M
  inhibition of twitch: 10% inhibition of twitch

## NCCCNCCCCNCCCNC(=O)Cc1cccc(O)c1 [Example 2, N-(3-Hydroxyphenylacetyl)-spermine]
3 x 10⁻⁷M
  inhibition of twitch: 35%
3 x 10⁻⁸M
  inhibition of twitch: 30%

## NCCCNCCCCNCCCNC(=O)Cc1ccc(O)cc1 [Example 3, N-(4-Hydroxyphenylacetyl)-spermine]
2.95x 10⁻⁵M
  Twitch amplitude was reduced from control (100%) levels: 74%
4.43x 10⁻⁵M
  Twitch amplitude was reduced from control (100%) levels: 91%
5.9 x 10⁻⁵M
  Twitch amplitude was reduced from control (100%) levels: 96%
5.9 x 10⁻⁶M
  Twitch amplitude was reduced from control (100%) levels: 25%
5.9 x 10⁻⁷M
  Twitch amplitude was reduced from control (100%) levels: 9%

## NCCCNCCCCNCCCNC(=O)CCc1cccc(O)c1 [Example 5, N(3-Hydroxyphenylpropanoyl)-spermine]
1.08 x 10⁻⁶M
  inhibition of twitch: 15%
1.08 x 10⁻⁷M
  inhibition of twitch: 10%

## NCCCNCCCCNCCCNC(=O)C=Cc1ccc(O)cc1 [Example 6, N-(4-Hydroxycinnamoyl)-spermine]
10⁻¹⁰M
  Twitch amplitude was reduced from control (100%) levels: 4%
10⁻⁵M
  Twitch amplitude was reduced from control (100%) levels: 70%
10⁻⁶M
  Twitch amplitude was reduced from control (100%) levels: 56%
10⁻⁷M
  Twitch amplitude was reduced from control (100%) levels: 33%
10⁻⁸M
  Twitch amplitude was reduced from control (100%) levels: 24%
10⁻⁹M
  Twitch amplitude was reduced from control (100%) levels: 18%

## NCCCNCCCCNCCCNC(=O)Cc1cc(O)cc(O)c1 [Example 9, N-(3,5-Dihydroxyphenylacetyl)-spermine]
1 07 x 10⁻⁶M
  Twitch amplitude was reduced from control levels: 25%
1.07 x 10⁻⁵M
  Twitch amplitude was reduced from control levels: 45%

## NCCCNCCCCNCCCNC(=O)c1ccccc1O [Example 10]
1.09 x 10⁻⁵M
  Twitch amplitude was reduced from control level: approximately 25%

## NCCCNCCCCNCCCNC(=O)c1cccc(O)c1 [Example 11, N-(3-Hydroxybenzoyl)-spermine]
1.02 x 10⁻⁵M
  Twitch amplitude was reduced from control levels: approximately 40%

## NCCCNCCCCNCCCNC(=O)C=Cc1cccc(O)c1 [Example 13, N-(3-Hydroxycinnamoyl)-spermine]
9.2 x 10⁻⁷M
  Twitch amplitude was reduced from control levels: approximately 25%

## NCCCNCCCNCCCNC(=O)Cc1cccc(O)c1 [Example 20, N-(3-Hydroxyphenylacetyl)-N′,N˝-bis(3-aminopropyl)-1,3-propanediamine]
1.04 x 10⁻⁴M
  Twitch amplitude was reduced from control (100%) levels: approximately 60%

## NCCCNCCCNCCCNC(=O)Cc1ccc(O)cc1 [Example 21, N-(4-Hydroxyphenylacetyl)-N′,N˝-bis(3-aminopropyl)-1,3-propanediamine]
10⁻⁴M
  Twitch amplitude was reduced from control (100%) levels: approximately 30%

## NCCCNCCCCNCCCNC(=O)CCc1ccc(O)cc1 [Example 22, N-(4-Hydroxyphenylpropanoyl)-spermine]
1.45x 10^-5M
  Twitch amplitude was reduced from control levels: 38%
1.45x 10^-6M
  Twitch amplitude was reduced from control levels: 30%
2.9 x 10^-5M
  Twitch amplitude was reduced from control levels: 81%
2.9 x 10^-6M
  Twitch amplitude was reduced from control levels: 38%
2.9 x 10^-7M
  Twitch amplitude was reduced from control levels: 25%
2.9 x 10^-8M
  Twitch amplitude was reduced from control levels: 10%
7.25x 10^-5M
  Twitch amplitude was reduced from control levels: 100%
Reduction of twitch amplitude, retractor unguis muscle, read-out: IC₅₀
  IC50: 6 µM
